This note sets out measurements from ChEMBL document CHEMBL3576820, “Discovery of benzimidazole oxazolidinediones as novel and selective nonsteroidal mineralocorticoid receptor antagonists” (ACS Med Chem Lett, 2015).

Each structure is given as a SMILES string. pIC50: −log10 of the molar value. Activity calls are given as the source filed them. No cut-off for these calls is given here.

The target of the first data set is T1, Mineralocorticoid receptor (Homo sapiens) (UniProt P08235).
T1 sequence (whole entry): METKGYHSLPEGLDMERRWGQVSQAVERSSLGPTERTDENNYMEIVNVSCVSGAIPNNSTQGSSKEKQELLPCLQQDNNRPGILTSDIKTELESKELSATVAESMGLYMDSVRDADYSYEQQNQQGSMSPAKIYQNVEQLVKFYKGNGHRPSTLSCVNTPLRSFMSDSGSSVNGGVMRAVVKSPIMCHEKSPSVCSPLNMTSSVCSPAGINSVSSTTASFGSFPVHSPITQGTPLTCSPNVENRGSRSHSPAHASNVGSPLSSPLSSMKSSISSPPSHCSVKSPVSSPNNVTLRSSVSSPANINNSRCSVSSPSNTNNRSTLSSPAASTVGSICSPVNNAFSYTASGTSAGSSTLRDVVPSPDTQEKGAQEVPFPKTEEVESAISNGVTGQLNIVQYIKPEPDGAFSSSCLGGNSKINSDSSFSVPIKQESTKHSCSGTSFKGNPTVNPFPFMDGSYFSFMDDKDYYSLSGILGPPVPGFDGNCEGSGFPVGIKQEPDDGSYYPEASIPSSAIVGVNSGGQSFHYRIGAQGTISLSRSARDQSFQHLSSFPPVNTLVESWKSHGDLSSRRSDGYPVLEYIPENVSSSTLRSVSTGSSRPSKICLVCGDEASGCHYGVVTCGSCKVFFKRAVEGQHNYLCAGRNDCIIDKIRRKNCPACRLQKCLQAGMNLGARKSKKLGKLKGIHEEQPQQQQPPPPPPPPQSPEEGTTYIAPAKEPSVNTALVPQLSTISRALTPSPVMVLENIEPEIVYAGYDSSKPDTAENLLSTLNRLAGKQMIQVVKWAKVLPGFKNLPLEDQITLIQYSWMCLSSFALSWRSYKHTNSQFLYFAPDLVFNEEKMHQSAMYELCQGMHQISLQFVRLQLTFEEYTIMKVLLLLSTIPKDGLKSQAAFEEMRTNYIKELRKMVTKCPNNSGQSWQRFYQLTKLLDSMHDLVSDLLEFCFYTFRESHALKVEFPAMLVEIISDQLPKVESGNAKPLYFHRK
Nature of the data set: Agonist activity at human mineralocorticoid receptor by cell-based assay.
Details: not given
On to `C[C@H](c1ccc(F)cc1)N1C(=O)O[C@](Cc2ccccc2)(c2nc3cc(-c4cncnc4)ccc3[nH]2)C1=O`, for which the outcome was inactive.
In the case of `C[C@H](c1ccc(F)cc1)N1C(=O)O[C@](Cc2ccccc2)(c2nc3cc(-c4cnoc4)ccc3[nH]2)C1=O`, the result was inactive.
The same measure, in the same setting: the same measure for `C[C@H](c1ccc(F)cc1)N1C(=O)O[C@](Cc2ccccc2)(c2nc3c(-c4cnn(C)c4)cccc3[nH]2)C1=O`: “inactive”.
The same measure, in the same setting: the same measure for `C[C@H](c1ccc(F)cc1)N1C(=O)O[C@](Cc2ccccc2)(c2nc3cc(OC(F)(F)F)ccc3[nH]2)C1=O`: “inactive”; for `C[C@H](c1ccc(F)cc1)N1C(=O)O[C@](Cc2ccccc2)(c2nc3ccccc3[nH]2)C1=O`: “inactive”.
Same read-out and setting: the same measure for `C[C@H](c1ccc(F)cc1)N1C(=O)O[C@](Cc2ccccc2)(c2nc3c(-c4ccncc4)cccc3[nH]2)C1=O`: “inactive”; for `C[C@H](c1ccc(F)cc1)N1C(=O)O[C@](Cc2ccccc2)(c2nc3cc(-c4ccccn4)ccc3[nH]2)C1=O`: “inactive”.
Turning to `C[C@H](c1ccc(F)cc1)N1C(=O)O[C@](Cc2ccccc2)(c2nc3c(-c4cnoc4)cccc3[nH]2)C1=O`, the result was inactive.
Still for that read-out and setting: for `C[C@H](c1ccc(F)cc1)N1C(=O)O[C@](Cc2ccccc2)(c2nc3cc(F)ccc3[nH]2)C1=O` the value was “inactive”.

For a further data set, the target named is T2, Estrogen receptor (Homo sapiens) (UniProt P03372).
T2 sequence (whole entry): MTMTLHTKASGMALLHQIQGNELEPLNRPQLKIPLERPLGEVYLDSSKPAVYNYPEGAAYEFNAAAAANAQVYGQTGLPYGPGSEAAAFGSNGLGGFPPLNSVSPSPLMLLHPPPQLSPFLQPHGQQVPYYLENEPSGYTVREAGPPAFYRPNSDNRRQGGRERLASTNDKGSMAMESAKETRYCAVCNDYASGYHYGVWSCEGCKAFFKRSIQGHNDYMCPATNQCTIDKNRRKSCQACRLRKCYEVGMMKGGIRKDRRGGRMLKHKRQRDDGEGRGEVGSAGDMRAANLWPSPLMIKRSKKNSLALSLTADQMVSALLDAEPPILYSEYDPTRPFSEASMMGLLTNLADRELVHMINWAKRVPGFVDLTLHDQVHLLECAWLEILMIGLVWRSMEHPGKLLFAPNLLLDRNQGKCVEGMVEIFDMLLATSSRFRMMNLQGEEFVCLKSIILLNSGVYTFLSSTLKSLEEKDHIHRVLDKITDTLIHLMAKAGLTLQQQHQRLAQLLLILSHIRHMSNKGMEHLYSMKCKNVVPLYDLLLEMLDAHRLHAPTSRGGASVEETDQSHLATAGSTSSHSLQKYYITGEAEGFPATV
Nature of the data set: Agonist activity at human estrogen receptor alpha by cell-based assay.
Details: not given
On to `C[C@H](c1ccc(F)cc1)N1C(=O)O[C@](Cc2ccccc2)(c2nc3cc(-c4cncnc4)ccc3[nH]2)C1=O`, for which the outcome was inactive.
Same read-out and setting: for `C[C@H](c1ccc(F)cc1)N1C(=O)O[C@](Cc2ccccc2)(c2nc3cc(-c4cnoc4)ccc3[nH]2)C1=O` the value was “inactive”; for `C[C@H](c1ccc(F)cc1)N1C(=O)O[C@](Cc2ccccc2)(c2nc3c(-c4cnn(C)c4)cccc3[nH]2)C1=O`, “inactive”.
The same measure, in the same setting: the same measure for `C[C@H](c1ccc(F)cc1)N1C(=O)O[C@](Cc2ccccc2)(c2nc3cc(OC(F)(F)F)ccc3[nH]2)C1=O`: “inactive”; for `C[C@H](c1ccc(F)cc1)N1C(=O)O[C@](Cc2ccccc2)(c2nc3ccccc3[nH]2)C1=O`: “inactive”.
Same read-out and setting: the same measure for `C[C@H](c1ccc(F)cc1)N1C(=O)O[C@](Cc2ccccc2)(c2nc3c(-c4ccncc4)cccc3[nH]2)C1=O`: “inactive”; for `C[C@H](c1ccc(F)cc1)N1C(=O)O[C@](Cc2ccccc2)(c2nc3cc(-c4ccccn4)ccc3[nH]2)C1=O`: “inactive”.
For `C[C@H](c1ccc(F)cc1)N1C(=O)O[C@](Cc2ccccc2)(c2nc3c(-c4cnoc4)cccc3[nH]2)C1=O`, the outcome was inactive.
On the same count and under the same terms, for `C[C@H](c1ccc(F)cc1)N1C(=O)O[C@](Cc2ccccc2)(c2nc3cc(F)ccc3[nH]2)C1=O` the value was “inactive”.

Tested on in a further data set: not listed separately
Nature of the data set: Metabolic stability in human liver microsomes assessed as compound remaining at 1 uM after 0.5 hrs. It is filed as ADME. Conditions: read-out: Stability.
As to `C[C@H](c1ccc(F)cc1)N1C(=O)O[C@](Cc2ccccc2)(c2nc3cc(-c4cnoc4)ccc3[nH]2)C1=O`, the remaining at 0.5 h, 1 µM was 60%.
The same measure, in the same setting: for `C[C@H](c1ccc(F)cc1)N1C(=O)O[C@](Cc2ccccc2)(c2nc3c(-c4cnn(C)c4)cccc3[nH]2)C1=O` the value was 54%; for `C[C@H](c1ccc(F)cc1)N1C(=O)O[C@](Cc2ccccc2)(c2nc3cc(OC(F)(F)F)ccc3[nH]2)C1=O`, 105%.
Regarding `C[C@H](c1ccc(F)cc1)N1C(=O)O[C@](Cc2ccccc2)(c2nc3ccccc3[nH]2)C1=O`, the remaining at 0.5 h, 1 µM was 58%.

Tested on in a further data set: not listed separately
Nature of the data set: Metabolic stability in rat liver microsomes assessed as compound remaining at 1 uM after 0.5 hrs. It is filed as ADME. Conditions: read-out: Stability. Background: Liver microsomes are vesicles of endoplasmic reticulum, rich in cytochrome P450 enzymes.
Take `C[C@H](c1ccc(F)cc1)N1C(=O)O[C@](Cc2ccccc2)(c2nc3cc(-c4cnoc4)ccc3[nH]2)C1=O`: the remaining at 0.5 h, 1 µM stood at 37%.
Take `C[C@H](c1ccc(F)cc1)N1C(=O)O[C@](Cc2ccccc2)(c2nc3c(-c4cnn(C)c4)cccc3[nH]2)C1=O`: the remaining at 0.5 h, 1 µM amounted to 18%.
Same read-out and setting: for `C[C@H](c1ccc(F)cc1)N1C(=O)O[C@](Cc2ccccc2)(c2nc3cc(OC(F)(F)F)ccc3[nH]2)C1=O` the value was 22%; for `C[C@H](c1ccc(F)cc1)N1C(=O)O[C@](Cc2ccccc2)(c2nc3ccccc3[nH]2)C1=O`, 8%.

The next data set deals with T3, Progesterone receptor (Homo sapiens) (UniProt P06401).
T3 sequence (whole entry): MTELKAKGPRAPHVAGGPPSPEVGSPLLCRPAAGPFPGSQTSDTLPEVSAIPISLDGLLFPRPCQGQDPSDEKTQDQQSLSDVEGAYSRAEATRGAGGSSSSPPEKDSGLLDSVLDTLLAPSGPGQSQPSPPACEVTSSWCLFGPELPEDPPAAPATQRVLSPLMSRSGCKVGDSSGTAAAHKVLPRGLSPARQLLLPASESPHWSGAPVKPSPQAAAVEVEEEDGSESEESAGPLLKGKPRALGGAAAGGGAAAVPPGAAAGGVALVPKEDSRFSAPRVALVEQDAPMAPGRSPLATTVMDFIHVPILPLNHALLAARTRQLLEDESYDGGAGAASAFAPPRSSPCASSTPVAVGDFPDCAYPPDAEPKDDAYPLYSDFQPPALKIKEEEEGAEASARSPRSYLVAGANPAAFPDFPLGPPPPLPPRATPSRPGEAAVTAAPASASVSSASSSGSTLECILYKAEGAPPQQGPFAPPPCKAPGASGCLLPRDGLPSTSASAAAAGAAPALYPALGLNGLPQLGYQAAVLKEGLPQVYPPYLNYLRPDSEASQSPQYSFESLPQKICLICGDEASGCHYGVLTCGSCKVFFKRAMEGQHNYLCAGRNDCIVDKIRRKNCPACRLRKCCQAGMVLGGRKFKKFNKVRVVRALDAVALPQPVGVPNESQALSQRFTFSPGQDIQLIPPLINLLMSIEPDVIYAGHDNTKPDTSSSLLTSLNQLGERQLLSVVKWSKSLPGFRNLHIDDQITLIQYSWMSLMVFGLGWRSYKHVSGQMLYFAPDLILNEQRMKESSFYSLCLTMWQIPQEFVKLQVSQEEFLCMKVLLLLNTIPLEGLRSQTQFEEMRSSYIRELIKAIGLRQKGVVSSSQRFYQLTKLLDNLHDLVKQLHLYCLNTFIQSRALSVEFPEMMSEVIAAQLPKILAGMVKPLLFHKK
Nature of the data set: Agonist activity at human progesterone receptor beta by cell-based assay.
Details: not given
As for `C[C@H](c1ccc(F)cc1)N1C(=O)O[C@](Cc2ccccc2)(c2nc3cc(-c4cncnc4)ccc3[nH]2)C1=O`, the outcome was inactive.
`C[C@H](c1ccc(F)cc1)N1C(=O)O[C@](Cc2ccccc2)(c2nc3cc(-c4cnoc4)ccc3[nH]2)C1=O`: the result was inactive.
In the case of `C[C@H](c1ccc(F)cc1)N1C(=O)O[C@](Cc2ccccc2)(c2nc3c(-c4cnn(C)c4)cccc3[nH]2)C1=O`, the outcome was inactive.
The same measure, in the same setting: for `C[C@H](c1ccc(F)cc1)N1C(=O)O[C@](Cc2ccccc2)(c2nc3cc(OC(F)(F)F)ccc3[nH]2)C1=O` the value was “inactive”.
In the case of `C[C@H](c1ccc(F)cc1)N1C(=O)O[C@](Cc2ccccc2)(c2nc3ccccc3[nH]2)C1=O`, the result was inactive.
As for `C[C@H](c1ccc(F)cc1)N1C(=O)O[C@](Cc2ccccc2)(c2nc3c(-c4ccncc4)cccc3[nH]2)C1=O`, the outcome was inactive.
Turning to `C[C@H](c1ccc(F)cc1)N1C(=O)O[C@](Cc2ccccc2)(c2nc3cc(-c4ccccn4)ccc3[nH]2)C1=O`, the outcome was inactive.
Same read-out and setting: for `C[C@H](c1ccc(F)cc1)N1C(=O)O[C@](Cc2ccccc2)(c2nc3c(-c4cnoc4)cccc3[nH]2)C1=O` the value was “inactive”.
Same read-out and setting: the same measure for `C[C@H](c1ccc(F)cc1)N1C(=O)O[C@](Cc2ccccc2)(c2nc3cc(F)ccc3[nH]2)C1=O`: “inactive”.

The next data set concerns the target T4, Mineralocorticoid receptor (Homo sapiens, UniProt P08235).
T4 sequence (P08235 whole entry): T1 sequence (whole entry)
Nature of the data set: Antagonist activity at human mineralocorticoid receptor overexpressed in CHOK1 cells assessed as inhibition of aldosterone-induced protein interaction with coactivator peptide after 6 hrs by luminescence assay. The data set is classed as cell-based, CHO-K1.
Details: not given
What is called pIC50 is −log10 of the IC50, conventionally taken in molar units. For `C[C@H](c1ccc(F)cc1)N1C(=O)O[C@](Cc2ccccc2)(c2nc3cc(-c4cncnc4)ccc3[nH]2)C1=O`, the pIC50 is 7.52.
On the same count and under the same terms, for `C[C@H](c1ccc(F)cc1)N1C(=O)O[C@](Cc2ccccc2)(c2nc3cc(-c4cnoc4)ccc3[nH]2)C1=O` the value was 7.21; for `C[C@H](c1ccc(F)cc1)N1C(=O)O[C@](Cc2ccccc2)(c2nc3c(-c4cnn(C)c4)cccc3[nH]2)C1=O`, 6.82; for `C[C@H](c1ccc(F)cc1)N1C(=O)O[C@](Cc2ccccc2)(c2nc3cc(OC(F)(F)F)ccc3[nH]2)C1=O`, 6.74.
Take `C[C@H](c1ccc(F)cc1)N1C(=O)O[C@](Cc2ccccc2)(c2nc3ccccc3[nH]2)C1=O`: the pIC50 was 6.72.
The same measure, in the same setting: for `C[C@H](c1ccc(F)cc1)N1C(=O)O[C@](Cc2ccccc2)(c2nc3c(-c4ccncc4)cccc3[nH]2)C1=O` the value was 6.64.
Same read-out and setting: the same measure for `C[C@H](c1ccc(F)cc1)N1C(=O)O[C@](Cc2ccccc2)(c2nc3cc(-c4ccccn4)ccc3[nH]2)C1=O`: 6.92; for `C[C@H](c1ccc(F)cc1)N1C(=O)O[C@](Cc2ccccc2)(c2nc3c(-c4cnoc4)cccc3[nH]2)C1=O`: 6.10.
In the case of `C[C@H](c1ccc(F)cc1)N1C(=O)O[C@](Cc2ccccc2)(c2nc3cc(F)ccc3[nH]2)C1=O`, the pIC50 was 6.64.
